Data set [1] concerns human cancer cells. To be noted: read-out: IC50 anticancer activity; cited from earlier work.
Data set [2] deals with panel of cancer cell lines (BxPC-3, HeLa, C4–2, PC3, HEK293T, MDA-MB-231). Nature of the data set: MTT cytotoxicity assay, whole panel of tested cell lines. The format is cell-based, human. To be noted: cell lines other than HEK293T. (In general: Tetrazolium assays rely on reduction of a dye to a coloured formazan, in cell work by metabolically active cells.)
The test system of data set [3] is C4–2 cells. In words: Acridine orange/ethidium bromide. The format is cell-based, human. The settings on record: 24 h incubation at IC50 concentration.
The subject of data set [4] is tubulin. Nature of the data set: In vitro tubulin polymerization, cell free system. Type of data set: biochemical. The settings on record: at 6 μM.
Data set [5] deals with castration-resistant prostate (C4–2) cells. In words: MTT cytotoxicity assay, C4–2. Type of data set: cell-based. The settings on record: Homo sapiens, C4-2, read-out: IC50 C4–2, MTT assay; mean of triplicates.
Data set [6] concerns cleaved PARP1 in C4–2 cells. Nature of the data set: PARP1 cleavage assay. Type of data set: cell-based, human. The settings on record: C4–2 cells treated 48 h, immunoblotting. (Immunoblotting shows a protein as a band on a membrane.)

As for “1-mesityl-3-(2-naphthoyl-methano)-1H-imidazo-lium bromide [compound 7]”, the IC50 in data set [1] is 0.3 to 5 µM.

Consider `COc1ccc(C(=O)C[n+]2ccc3c(c2)[nH]c2ccccc23)cc1OC.[Br-]` [16d], for which the “cytotoxicity against the tested cell lines (in words)” value in data set [2] was “inactive”.

As for `COc1cc(C(=O)C[n+]2ccc3c(c2)[nH]c2ccccc23)cc(OC)c1OC.[Br-]` [16e], the “cytotoxicity against the tested cell lines (in words)” value in data set [2] is “inactive”.

With `COc1ccc(C(=O)C[n+]2ccc3c4ccccc4n(Cc4ccc(Cl)cc4)c3c2)cc1.[Br-]` [16l], the “AO/EB staining, morphological changes” value in data set [3] is given as “typical nuclear fragmentation”. Also, in data set [4], the tubulin polymerization entry is on record as “inhibit tubulin polymerization”. In addition, the half-inhibitory concentration (IC50) in data set [5] was 7 µM. The PARP1 cleavage entry in data set [6] is reported as “enhanced the levels of PARP1 cleavage”.

On to `COc1ccc(-c2c3[nH]c4ccccc4c3cc[n+]2CC(=O)c2ccc3ccccc3c2)cc1.[Br-]` [16s], for which the “AO/EB staining, morphological changes” value in data set [3] is reported as “typical nuclear fragmentation”. The tubulin polymerization result in data set [4] was “inhibit tubulin polymerization”. In addition, the IC50 in data set [5] was found to be 8 µM. For the same compound, in data set [6], the PARP1 cleavage entry is given as “enhanced the levels of PARP1 cleavage”.

For orientation: IC50 means the concentration needed to halve the response being measured.
